According to publication PMC5030160 (Nature chemical biology, 2016):

Target: Pdr5 (Saccharomyces cerevisiae, UniProt P33302)
Test: fluorescence transport assay in isolated plasma membranes
Type: biochemical
Conditions: 150 nM R6G, 10 mM ATP, 5 mM MgCl2, Hepes pH 7.0, 30 °C

Chain of Pdr5 (P33302 whole entry): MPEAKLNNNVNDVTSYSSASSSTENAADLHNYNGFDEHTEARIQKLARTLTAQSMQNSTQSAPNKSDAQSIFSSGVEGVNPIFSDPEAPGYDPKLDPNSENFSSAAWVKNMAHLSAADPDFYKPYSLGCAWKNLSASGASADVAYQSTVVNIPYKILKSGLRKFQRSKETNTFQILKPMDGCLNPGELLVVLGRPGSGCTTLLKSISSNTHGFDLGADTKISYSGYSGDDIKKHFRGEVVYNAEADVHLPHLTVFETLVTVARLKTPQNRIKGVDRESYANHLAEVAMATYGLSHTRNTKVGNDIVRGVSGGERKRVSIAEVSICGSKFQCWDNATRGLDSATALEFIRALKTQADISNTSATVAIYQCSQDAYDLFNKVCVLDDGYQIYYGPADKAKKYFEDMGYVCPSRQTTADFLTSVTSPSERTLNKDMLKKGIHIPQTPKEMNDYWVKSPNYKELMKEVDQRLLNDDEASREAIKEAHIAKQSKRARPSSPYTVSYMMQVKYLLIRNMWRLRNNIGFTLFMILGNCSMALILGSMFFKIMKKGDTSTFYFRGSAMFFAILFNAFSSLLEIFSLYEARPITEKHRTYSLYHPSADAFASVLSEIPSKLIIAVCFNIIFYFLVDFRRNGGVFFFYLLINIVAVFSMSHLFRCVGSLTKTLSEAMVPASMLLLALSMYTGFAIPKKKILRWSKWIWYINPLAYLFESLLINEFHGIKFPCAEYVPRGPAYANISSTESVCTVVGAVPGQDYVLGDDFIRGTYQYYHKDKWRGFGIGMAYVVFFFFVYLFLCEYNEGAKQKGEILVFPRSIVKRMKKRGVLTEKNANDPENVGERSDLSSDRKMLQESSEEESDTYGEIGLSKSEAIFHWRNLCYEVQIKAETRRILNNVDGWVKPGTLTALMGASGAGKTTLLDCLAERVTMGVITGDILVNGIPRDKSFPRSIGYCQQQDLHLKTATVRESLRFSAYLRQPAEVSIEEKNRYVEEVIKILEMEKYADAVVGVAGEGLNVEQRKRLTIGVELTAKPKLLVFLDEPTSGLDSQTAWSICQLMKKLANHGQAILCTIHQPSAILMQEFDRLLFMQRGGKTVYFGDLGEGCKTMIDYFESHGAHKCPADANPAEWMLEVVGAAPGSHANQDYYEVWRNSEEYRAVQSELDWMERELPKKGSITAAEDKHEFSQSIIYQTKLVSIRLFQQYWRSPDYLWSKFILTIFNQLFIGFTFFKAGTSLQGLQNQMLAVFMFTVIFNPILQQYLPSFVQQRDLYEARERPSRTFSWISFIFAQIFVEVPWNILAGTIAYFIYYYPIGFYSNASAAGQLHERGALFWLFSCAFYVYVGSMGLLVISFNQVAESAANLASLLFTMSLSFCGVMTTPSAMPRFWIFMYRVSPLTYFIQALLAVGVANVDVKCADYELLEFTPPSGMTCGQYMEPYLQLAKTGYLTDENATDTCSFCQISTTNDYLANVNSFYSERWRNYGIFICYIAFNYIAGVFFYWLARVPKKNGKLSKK

For `CCN=c1cc2oc3cc(NCC)c(C)cc3c(-c3ccccc3C(=O)OCC)c-2cc1C` [rhodamine-6G], the “fluorescence transport assay in isolated plasma membranes” value was “Active transport of rhodamine-6G (R6G) was determined according to a standard protocol”.
